Measured values reported in PubChem BioAssay (NCI).
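48-hour exposure; five concentrations; linearly interpolated endpoints. GI50 is the concentration that inhibits growth by half. TGI is the concentration that stops growth completely.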

Experiments:
Experiment in all cases: DTP human tumour cell line panel, 48 h
CCRF-CEM leukemia = system: CCRF-CEM leukemia
NCI-H23 lung = system: NCI-H23 lung
OVCAR-5 ovarian = system: OVCAR-5 ovarian
OVCAR-8 ovarian = system: OVCAR-8 ovarian
RXF 393 renal = system: RXF 393 renal
SF-268 CNS = system: SF-268 CNS
SF-295 CNS = system: SF-295 CNS
SN12C renal = system: SN12C renal
SR leukemia = system: SR leukemia
U251 CNS = system: U251 CNS

Row | Structure (SMILES) | TGI (CCRF-CEM leukemia) [µM] | TGI (NCI-H23 lung) [µM] | TGI (OVCAR-5 ovarian) [µM] | TGI (OVCAR-8 ovarian) [µM] | TGI (RXF 393 renal) [µM] | TGI (SF-268 CNS) [µM] | TGI (SF-295 CNS) [µM] | TGI (SN12C renal) [µM] | TGI (SR leukemia) [µM] | TGI (U251 CNS) [µM] | GI50 (CCRF-CEM leukemia) [nM] | GI50 (NCI-H23 lung) [nM] | GI50 (OVCAR-5 ovarian) [nM] | GI50 (RXF 393 renal) [nM] | GI50 (SF-268 CNS) [nM] | GI50 (SF-295 CNS) [nM] | GI50 (SN12C renal) [nM] | GI50 (SR leukemia) [nM] | GI50 (OVCAR-8 ovarian) [nM] | GI50 (U251 CNS) [nM]
1 | O=C1C(Cl)=C(Cl)C(=O)N1c1ccccc1Cl | 19.3 | > 100 | > 100 | > 100 | > 100 | > 100 | > 100 | > 100 | 69.7 | > 100 |  |  |  |  |  |  |  |  |  | 
2 | Cn1nc(-c2ccccc2)c2c(/C=C/c3ccc(Cl)cc3)onc2c1=O | > 100 | > 100 |  | 84.3 | > 100 | > 100 | 68.8 | > 100 |  | > 100 |  |  |  |  |  |  |  |  |  | 
3 | O=c1c2cccc(F)c2sc2c(NCCCNCCO)nc3ccccc3c12 | 3.87 | 2.99 | 3.07 |  | 2.73 | 3.12 | 3.19 | 2.9 | 4.85 |  | 1410 | 1540 | 1650 | 1370 | 1550 | 1760 | 1440 | 984 |  | 
4 | Cc1ccccc1C=NC12CC3CC(CC(C3)C1)C2 | > 100 | > 100 | > 100 | > 100 | > 100 | > 100 | > 100 | > 100 |  | > 100 |  |  |  |  |  |  |  |  |  | 
5 | O=C(Nc1ccccc1)n1cc(-c2ccccn2)c(N2CCOCC2)n1 | > 100 |  |  | > 100 |  | > 100 | 28.2 | > 100 |  | > 100 |  |  |  |  |  |  |  |  |  | 
6 | CCC(C)C(=O)O[C@H]1C(=O)O[C@@H]2C[C@H]3C(C)=CC(=O)[C@@H](O)[C@]3(C)[C@H]3[C@@H](O)[C@H](O)[C@@]4(C)OC[C@]32[C@@H]14 (stereo not given in full) |  | < 0.01 | 0.0942 | < 0.0302 | < 0.0345 | 0.454 |  | < 0.0135 | < 0.0204 | < 0.0345 |  |  |  |  |  |  |  |  |  | 
7 | COC(=O)C(=O)C(C#N)c1cccc(Cl)c1 (stereo not given) | > 100 | > 100 | > 100 | > 100 | > 100 | > 100 | > 100 | > 100 | > 100 | > 100 |  |  |  |  |  |  |  |  |  | 
8 | Cc1occc1C(=S)Nc1ccc(Cl)c(C(=O)OCC(C)C)c1 | > 100 | 45.3 | 88.1 | 30.7 |  | 42.5 | 33.2 | 36.3 |  | 35.9 |  |  |  |  |  |  |  |  |  | 
9 | CC1NC(C(=O)O)Cc2cc(O)c(O)cc21 (stereo not given) | > 100 | > 100 | > 100 | > 100 | > 100 | > 100 | > 100 | > 100 | > 100 | > 100 |  |  |  |  |  |  |  |  |  | 
10 | CC(=O)OC1CC2C(C)(C)CCC[C@]2(C)C2=C1C(O)=C(C(C)C)C(=O)C2=O (stereo not given in full) | 7.03 | 2.98 | 3.79 | 14.5 | 1.02 | 10.1 | 2.57 | 7.58 | 2.11 | 21.7 | 1120 | 704 | 1440 | 254 | 902 | 644 | 801 | 390 | 2140 | 666
11 | Cc1cc2c(C(=O)NCC#N)cccc2n1-c1nc2c(c(NCc3ccccc3)n1)CCCC2 |  | 1.19 | 1.94 | 1.98 | 0.541 | 1.35 | 0.444 | 0.904 | 10.3 | 0.521 |  | 285 | 395 | 225 | 340 | 191 | 310 | 257 | 340 | 227
12 | CCC1=C[C@@H]2CN(C1)Cc1c([nH]c3ccccc13)[C@@](C(=O)OC)(c1cc3c(cc1OC)N(C)[C@H]1[C@@](O)(C(=O)OC)[C@H](OC(C)=O)[C@]4(CC)C=CCN5CC[C@]31[C@@H]54)C2 | 0.71 | 41.4 | 27.2 | 25.6 |  | 14.2 |  | 43.7 | 1.95 | 8.42 | < 10 | < 18.7 | < 10 |  | < 10 | < 10 | < 21.4 | < 10 | < 21.3 | < 10
13 | N#CC(C(=O)CCC(=O)Nc1ccc(Cl)cc1)c1ccc(Cl)cc1 (stereo not given) | > 100 | > 100 | > 100 | > 100 |  | > 100 | > 100 | > 100 |  | > 100 |  |  |  |  |  |  |  |  |  | 
14 | C[C@]12CCCN1CC1=NNC(=O)c3cc(F)cc4[nH]c2c1c34 | 81 | 54.6 | > 100 | > 100 |  | 61.4 | 51.1 | 79.1 | > 100 | > 100 | 22500 | 16100 | 20200 |  | 19000 | 16100 | 14300 | 3570 | 19500 | 14100
15 | Cc1ccc(C(=O)C(c2nc3n(c2O)C(=N)N=N3)c2nc3n(c2O)C(=N)N=N3)cc1 (stereo not given) | > 100 | > 100 | > 100 | > 100 | > 100 | > 100 | > 100 | > 100 |  |  |  |  |  |  |  |  |  |  |  | 
16 | CCc1cccc(C)c1N1C(=O)C(=O)C(c2nc3ccccc3o2)/C(=N/NC(=S)NN)C1=O (stereo not given) | > 100 | > 100 | > 100 | > 100 | > 100 | > 100 | > 100 | > 100 |  | > 100 |  |  |  |  |  |  |  |  |  | 
17 | COc1ccc(C2=NN(C=O)C(c3ccc(OS(=O)(=O)c4ccc(C)cc4)c(OC)c3)C2)cc1 (stereo not given) | > 100 | > 100 | > 100 | > 100 | 46.8 | > 100 | 25.2 | > 100 | > 100 |  | 4050 | 4580 | > 100000 | 3810 | 17200 | 3580 | 65900 | 3020 | 10200 | 
18 | O=C[C@]12CC=C3OC4OC5(CCCCC5)OC4[C@H]3[C@H]1C(=O)C=CC2=O (stereo not given in full) | 9.3 |  | > 100 | 34.6 | 25.9 | 89 | > 100 | > 100 | 7.93 | 64.6 |  |  |  |  |  |  |  |  |  | 
